Experiments:
Human plasma kallikrein = target: T1, Human plasma kallikrein (Homo sapiens, UniProt P03952); experiment: Plasma Kallikrein Assay; format: biochemical; settings: purified Human plasma kallikrein 0.5 nM, substrate Acetyl-K-P-R-AFC, pH 7.4
T1 construct: yields a heavy chain (371 amino acids) and a light chain (248 amino acids); purchased Enzyme Research Laboratories

human factor XIa = human factor XIa (Homo sapiens, UniProt P03951); experiment: Factor XIa Assay; format: biochemical; settings: human factor XIa 0.04 nM, substrate GPR-AFC, 30 min pre-incubation at 25° C., pH 7.4; read-out: FXIa IC50
Sequence of human factor XIa (P03951 388-625 limits assumed): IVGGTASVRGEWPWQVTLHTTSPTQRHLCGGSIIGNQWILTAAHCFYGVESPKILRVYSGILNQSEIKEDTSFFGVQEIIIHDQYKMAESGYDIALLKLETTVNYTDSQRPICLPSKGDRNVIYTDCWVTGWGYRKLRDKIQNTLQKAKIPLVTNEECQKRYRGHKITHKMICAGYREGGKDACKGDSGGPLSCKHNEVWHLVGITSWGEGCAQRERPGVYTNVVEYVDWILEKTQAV
Sequence of human factor XIa (P03951 19-387 partner limits assumed): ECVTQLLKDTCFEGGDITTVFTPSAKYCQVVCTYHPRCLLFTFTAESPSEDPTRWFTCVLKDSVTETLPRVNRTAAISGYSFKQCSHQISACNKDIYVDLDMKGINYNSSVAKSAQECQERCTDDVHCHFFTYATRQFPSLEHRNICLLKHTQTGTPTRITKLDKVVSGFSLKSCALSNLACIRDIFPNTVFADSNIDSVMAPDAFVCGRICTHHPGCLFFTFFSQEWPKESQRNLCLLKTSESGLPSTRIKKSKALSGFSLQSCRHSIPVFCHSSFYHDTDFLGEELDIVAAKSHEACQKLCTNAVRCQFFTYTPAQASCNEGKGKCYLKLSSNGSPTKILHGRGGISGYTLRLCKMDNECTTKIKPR

T1 sequence (P03952 391-638 limits assumed): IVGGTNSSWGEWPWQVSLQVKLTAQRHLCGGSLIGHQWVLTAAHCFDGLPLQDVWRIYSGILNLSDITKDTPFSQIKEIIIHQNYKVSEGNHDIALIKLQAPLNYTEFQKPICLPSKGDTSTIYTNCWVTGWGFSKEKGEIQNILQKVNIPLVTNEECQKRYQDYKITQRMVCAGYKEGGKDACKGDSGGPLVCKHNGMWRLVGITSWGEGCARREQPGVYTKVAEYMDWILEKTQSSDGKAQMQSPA
T1 sequence (P03952 20-390 partner limits assumed): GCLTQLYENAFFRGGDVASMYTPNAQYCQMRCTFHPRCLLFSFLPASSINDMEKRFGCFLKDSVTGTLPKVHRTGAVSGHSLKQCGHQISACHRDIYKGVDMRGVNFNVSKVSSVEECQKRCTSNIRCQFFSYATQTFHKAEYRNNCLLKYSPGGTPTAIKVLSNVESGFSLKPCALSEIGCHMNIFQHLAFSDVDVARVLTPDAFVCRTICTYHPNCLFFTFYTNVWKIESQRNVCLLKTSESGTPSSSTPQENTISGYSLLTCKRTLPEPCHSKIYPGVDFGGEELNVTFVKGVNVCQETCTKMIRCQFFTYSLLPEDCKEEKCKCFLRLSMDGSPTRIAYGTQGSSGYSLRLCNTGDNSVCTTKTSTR

| IC50 (Human plasma kallikrein) | IC50 (human factor XIa) | Structure (SMILES) |
| --- | --- | --- |
| 17.3 nM | 5040 nM | O=C(Nc1cnn(Cc2ccc(N3CCC3)nc2)c1)c1cncc(-c2c(OC(F)F)ccc(Cl)c2F)n1 [Example 63, N-(1-((6-(Azetidin-1-yl)pyridin-3-yl)methyl)-1H-pyrazol-4-yl)-6-(3-chloro-6-(difluoromethoxy)-2-fluorophenyl)pyrazine-2-carboxamide] |
| 22.9 nM | 1690 nM | O=C(Nc1cnn([C@@H](CO)c2cnc(N3CCC3)nc2)c1)c1cncc(-c2c(C(F)F)ccc(Cl)c2F)n1 (single isomer, unassigned) [Example 6] |
| 10.2 nM | 921 nM | COc1ncc(-c2c(C(F)F)ccc(Cl)c2F)nc1C(=O)Nc1cnn(Cc2cnc(N3CCC3)nc2)c1 [Example 1, N-(1-((2-(Azetidin-1-yl)pyrimidin-5-yl)methyl)-1H-pyrazol-4-yl)-6-(3-chloro-6-(difluoromethyl)-2-fluorophenyl)-3-methoxypyrazine-2-carboxamide] |
| 9.4 nM | 8080 nM | CC(c1cnc(N2Cc3cccnc3C2)nc1)n1cc(NC(=O)c2cncc(-c3c(C(F)F)ccc(Cl)c3F)n2)cn1 (centres unmarked) [Example 83, 6-(3-Chloro-6-(difluoromethyl)-2-fluorophenyl)-N-(1-(1-(2-(5,7-dihydro-6H-pyrrolo[3,4-b]pyridin-6-yl)pyrimidin-5-yl)ethyl)-1H-pyrazol-4-yl)pyrazine-2-carboxamide] |
| 2.4 nM | 1120 nM | CC(c1cnc(N2C[C@H]3C[C@H]3C2C(=O)N(C)C)nc1)n1cc(NC(=O)c2cncc(-c3c(C(F)F)ccc(Cl)c3F)n2)cn1 (single isomer, unassigned) [Example 200, (1R,2S,5S or 1S,2R,5R)-3-(5-((R or S)-1-(4-(6-(3-Chloro-6-(difluoromethyl)-2-fluorophenyl)pyrazine-2-carboxamido)-1H-pyrazol-1-yl)ethyl)pyrimidin-2-yl)-N,N-dimethyl-3-azabicyclo[3.1.0]hexane-2-carboxamide] |
| 5 nM | 2580 nM | CC(c1ccc(N2CCC2)nc1)n1cc(NC(=O)c2cncc(-c3c(C(F)F)ccc(Cl)c3F)n2)cn1 (single isomer, unassigned) [Example 38, (R or S)-N-(1-(1-(6-(azetidin-1-yl)pyridin-3-yl)ethyl)-1H-pyrazol-4-yl)-6-(3-chloro-6-(difluoromethyl)-2-fluorophenyl)pyrazine-2-carboxamide] |
| 15.8 nM | 1110 nM | O=C(Nc1cnn(Cc2cnc(N3CCC3)nc2CO)c1)c1cncc(-c2c(C(F)F)ccc(Cl)c2F)n1 [Example 2, N-(1-((2-(Azetidin-1-yl)-4-(hydroxymethyl)pyrimidin-5-yl)methyl)-1H-pyrazol-4-yl)-6-(3-chloro-6-(difluoromethyl)-2-fluorophenyl)pyrazine-2-carboxamide] |
| 8.4 nM | 1050 nM | N#Cc1cc(N2CCC2)ncc1Cn1cc(NC(=O)c2cncc(-c3c(C(F)F)ccc(Cl)c3F)n2)cn1 [Example 16, N-(1-((6-(Azetidin-1-yl)-4-cyanopyridin-3-yl)methyl)-1H-pyrazol-4-yl)-6-(3-chloro-6-(difluoromethyl)-2-fluorophenyl)pyrazine-2-carboxamide] |
| 25.9 nM | 3710 nM | CC(c1cnc(N2CC[C@H](O)C2)nc1)n1cc(NC(=O)c2cncc(-c3c(C(F)F)ccc(Cl)c3F)n2)cn1 (mixture of isomers) [Example 96, 6-(3-Chloro-6-(difluoromethyl)-2-fluorophenyl)-N-(1-((R and S)-1-(2-((S)-3-hydroxypyrrolidin-1-yl)pyrimidin-5-yl)ethyl)-1H-pyrazol-4-yl)pyrazine-2-carboxamide] |
| 3.7 nM | 1490 nM | O=C(Nc1cnn(Cc2cnc(N3C[C@H]4C[C@H]4[C@H]3CO)nc2)c1)c1cncc(-c2c(C(F)F)ccc(Cl)c2F)n1 [Example 73, 6-(3-Chloro-6-(difluoromethyl)-2-fluorophenyl)-N-(1-((2-((1R,2S,5S)-2-(hydroxymethyl)-3-azabicyclo[3.1.0]hexan-3-yl)pyrimidin-5-yl)methyl)-1H-pyrazol-4-yl)pyrazine-2-carboxamide] |

— patent US20230416227A1, “PLASMA KALLIKREIN INHIBITORS” (Merck Sharp & Dohme LLC, priority 2020, published 2023)
